In patent US11306079B2, “3-(5-amino-pyrazin-2-yl)-benzenesulfonamide derivatives and related compounds as PI3K-gamma kinase inhibitors” (Incyte Corporation, priority 2017, dated 2022):
Counter-ions that a name gives are not always drawn.

Legend:
[1] = tested on: Phosphorylated Ribosomal Protein S6 (RPS6) in THP-1 cells; assay: THP-1 RPS6 ELISA Assay; type: cell-based; settings: Homo sapiens; serum starved THP-1 cells, 2 hours with compound, 10 nM MCP-1 for 15 minutes, Phospho-RPS6 ELISA; read-out: PI3Kγ_THP1_RPS6_ELISA IC50
Procedure, shortened: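 Serum-starved THP-1 cells (2×10^5/well, RPMI) preincubated with compound 2 h at 37° C, then stimulated with 10 nM MCP-1 for 15 min. Lysates assayed by phospho-RPS6 ELISA, absorbance 450 nm (540 nm correction); IC50 from percent inhibition versus log concentration.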

[2] = molecular target: PI3Kδ (p110δ/p85α) Recombinant Human Protein (Homo sapiens (Human), UniProt O00329); assay: PI3Kδ Scintillation Proximity Assay; type: biochemical; settings: 20 μM PIP2, 2 μM ATP, 3.4 nM PI3Kδ, 120 min, room temperature
Procedure, shortened: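 Kinase reaction run at room temperature in 20 mM MOPS pH 6.7, 10 mM MgCl2, 5 mM DTT, 0.03% CHAPS with 20 μM PIP2, 2 μM ATP plus [γ-33P]ATP, 3.4 nM enzyme, 2% DMSO; 120 min. Quenched with WGA SPA beads/EDTA, counted by scintillation; IC50 from % solvent-control activity vs log concentration.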

[3] = molecular target: PI3Kγ (p110γ) Recombinant Human Protein (Homo sapiens (Human), UniProt P48736); assay: PI3K-γ Scintillation Proximity Assay; type: biochemical; settings: 20 μM PIP2, 2 μM ATP, 13 nM PI3Kγ, 120 min, room temperature
Procedure, shortened: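 Recombinant human p110γ (13 nM) phosphorylated 20 μM PIP2 with 2 μM ATP plus [γ-33P]ATP in 20 mM MOPS pH 6.7, 10 mM MgCl2, 5 mM DTT, 0.03% CHAPS, 2% DMSO, 120 min at room temperature. Radiolabelled product was captured on WGA SPA beads and counted. IC50 came from curves of percent solvent-control activity.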

PI3Kδ (p110δ/p85α) Recombinant Human Protein, sequence (O00329 whole entry): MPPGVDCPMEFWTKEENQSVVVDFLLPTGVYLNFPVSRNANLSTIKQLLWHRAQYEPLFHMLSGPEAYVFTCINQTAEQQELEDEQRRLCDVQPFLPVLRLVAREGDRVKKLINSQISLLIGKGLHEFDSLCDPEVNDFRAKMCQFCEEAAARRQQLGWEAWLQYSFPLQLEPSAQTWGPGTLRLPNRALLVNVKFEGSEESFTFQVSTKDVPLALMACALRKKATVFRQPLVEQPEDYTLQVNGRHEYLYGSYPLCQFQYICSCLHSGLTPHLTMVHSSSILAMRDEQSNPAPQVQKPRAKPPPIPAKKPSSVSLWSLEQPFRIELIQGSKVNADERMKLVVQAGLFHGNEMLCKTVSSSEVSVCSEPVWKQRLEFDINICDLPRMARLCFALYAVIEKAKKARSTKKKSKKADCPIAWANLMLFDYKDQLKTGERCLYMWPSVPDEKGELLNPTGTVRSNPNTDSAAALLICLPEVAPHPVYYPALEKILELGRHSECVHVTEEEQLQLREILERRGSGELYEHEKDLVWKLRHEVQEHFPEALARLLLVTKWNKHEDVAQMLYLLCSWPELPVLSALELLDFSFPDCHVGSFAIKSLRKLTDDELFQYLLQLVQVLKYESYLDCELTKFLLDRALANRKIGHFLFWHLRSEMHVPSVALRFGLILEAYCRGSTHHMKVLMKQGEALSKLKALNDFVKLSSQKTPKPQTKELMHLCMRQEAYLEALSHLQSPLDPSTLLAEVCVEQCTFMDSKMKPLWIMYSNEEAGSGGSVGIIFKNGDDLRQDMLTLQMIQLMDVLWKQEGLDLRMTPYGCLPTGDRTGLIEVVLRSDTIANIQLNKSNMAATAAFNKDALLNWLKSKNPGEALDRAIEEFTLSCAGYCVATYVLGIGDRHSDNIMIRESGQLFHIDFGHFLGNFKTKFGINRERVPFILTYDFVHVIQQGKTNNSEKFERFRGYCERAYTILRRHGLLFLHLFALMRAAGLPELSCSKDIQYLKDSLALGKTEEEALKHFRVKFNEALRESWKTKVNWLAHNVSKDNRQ
PI3Kδ (p110δ/p85α) Recombinant Human Protein, sequence (P27986 whole entry partner): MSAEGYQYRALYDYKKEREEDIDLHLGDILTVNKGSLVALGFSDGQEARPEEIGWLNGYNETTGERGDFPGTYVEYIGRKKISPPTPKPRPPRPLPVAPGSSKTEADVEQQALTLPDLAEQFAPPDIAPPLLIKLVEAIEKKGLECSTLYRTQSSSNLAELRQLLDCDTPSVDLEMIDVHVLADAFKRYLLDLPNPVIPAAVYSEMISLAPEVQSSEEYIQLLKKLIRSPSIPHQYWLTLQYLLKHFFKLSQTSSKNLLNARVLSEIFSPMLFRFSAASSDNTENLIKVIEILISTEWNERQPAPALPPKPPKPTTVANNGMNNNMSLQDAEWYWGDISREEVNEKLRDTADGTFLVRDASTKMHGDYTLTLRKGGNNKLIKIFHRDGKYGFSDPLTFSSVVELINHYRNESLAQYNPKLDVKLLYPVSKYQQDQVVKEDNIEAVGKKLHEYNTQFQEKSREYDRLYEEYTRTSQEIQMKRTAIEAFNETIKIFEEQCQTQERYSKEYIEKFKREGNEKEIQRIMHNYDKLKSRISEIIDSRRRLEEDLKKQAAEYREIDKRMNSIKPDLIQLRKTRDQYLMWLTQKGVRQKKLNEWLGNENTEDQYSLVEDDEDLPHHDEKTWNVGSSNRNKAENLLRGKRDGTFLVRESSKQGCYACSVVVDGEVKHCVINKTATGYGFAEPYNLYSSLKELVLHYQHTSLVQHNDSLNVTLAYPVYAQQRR
PI3Kγ (p110γ) Recombinant Human Protein, sequence (P48736 whole entry): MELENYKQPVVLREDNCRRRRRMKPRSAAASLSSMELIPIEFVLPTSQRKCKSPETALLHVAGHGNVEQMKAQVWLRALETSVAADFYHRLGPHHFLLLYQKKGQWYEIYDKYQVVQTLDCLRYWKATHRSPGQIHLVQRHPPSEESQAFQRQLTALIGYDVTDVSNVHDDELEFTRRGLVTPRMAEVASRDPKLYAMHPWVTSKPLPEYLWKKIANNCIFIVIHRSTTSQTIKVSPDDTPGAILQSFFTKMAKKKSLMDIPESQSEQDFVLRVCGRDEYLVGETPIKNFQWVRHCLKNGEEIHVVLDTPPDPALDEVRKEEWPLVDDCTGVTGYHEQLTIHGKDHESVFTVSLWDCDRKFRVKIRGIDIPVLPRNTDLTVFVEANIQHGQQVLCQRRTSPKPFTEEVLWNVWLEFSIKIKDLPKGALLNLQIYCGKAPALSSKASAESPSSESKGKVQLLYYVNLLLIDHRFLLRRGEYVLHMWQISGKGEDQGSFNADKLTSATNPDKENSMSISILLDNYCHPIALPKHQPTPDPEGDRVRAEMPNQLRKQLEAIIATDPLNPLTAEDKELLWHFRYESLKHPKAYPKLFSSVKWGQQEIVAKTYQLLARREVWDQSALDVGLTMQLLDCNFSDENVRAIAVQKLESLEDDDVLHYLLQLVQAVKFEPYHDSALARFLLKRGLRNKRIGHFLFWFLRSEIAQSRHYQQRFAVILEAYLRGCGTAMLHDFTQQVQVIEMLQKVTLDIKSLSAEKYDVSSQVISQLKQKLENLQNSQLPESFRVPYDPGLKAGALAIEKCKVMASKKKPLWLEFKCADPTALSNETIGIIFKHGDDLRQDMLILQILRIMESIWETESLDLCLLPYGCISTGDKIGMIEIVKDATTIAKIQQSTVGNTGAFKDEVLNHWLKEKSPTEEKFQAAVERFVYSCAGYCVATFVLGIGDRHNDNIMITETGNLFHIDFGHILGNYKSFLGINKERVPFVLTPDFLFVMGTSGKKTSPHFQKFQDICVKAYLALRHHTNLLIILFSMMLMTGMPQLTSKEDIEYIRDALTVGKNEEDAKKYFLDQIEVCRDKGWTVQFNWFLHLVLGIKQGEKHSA

`CCOC(=O)NC12CC(NS(=O)(=O)c3ccc(C)c(-c4cnc(N)c(-n5cncn5)n4)c3)(C1)C2` [Example 39, Ethyl 3-(3-(5-amino-6-(1H-1,2,4-triazol-1-yl)pyrazin-2-yl)-4-methylphenylsulfonamido)bicyclo[1.1.1]pentan-1-ylcarbamate Trifluoroacetate Salt] was tested, and the IC50 [1] was at most 500 nM, the IC50 [2] was at most 500 nM and the IC50 [3] was at most 100 nM.

With `CC(=O)NC12CC(NS(=O)(=O)c3ccc(C)c(-c4cnc(N)c(-n5cncn5)n4)c3)(C1)C2` [Example 40, N-(3-(3-(5-Amino-6-(1H-1,2,4-triazol-1-yl)pyrazin-2-yl)-4-methylphenylsulfonamido)bicyclo[1.1.1]pentan-1-yl)acetamide Trifluoroacetate Salt] the IC50 [1] was at most 1000 nM, the IC50 [2] was at most 500 nM and the IC50 [3] was at most 100 nM.

In the case of `Cc1ccc(S(=O)(=O)NC23CC(C#N)(C2)C3)cc1-c1cnc(N)c(-n2nccn2)n1` [Example 41, 3-(5-Amino-6-(2H-1,2,3-triazol-2-yl)pyrazin-2-yl)-N-(3-cyanobicyclo[1.1.1]pentan-1-yl)-4-methylbenzenesulfonamide Trifluoroacetate Salt], the IC50 [1] is reported as at most 100 nM, the IC50 [2] is reported as at most 100 nM and the IC50 [3] is reported as at most 100 nM.

`Cc1ccc(S(=O)(=O)NC23CCC(C#N)(C2)C3)cc1-c1cnc(N)c(-n2nccn2)n1` [Example 42, 3-(5-Amino-6-(2H-1,2,3-triazol-2-yl)pyrazin-2-yl)-N-(4-cyanobicyclo[2.1.1]hexan-1-yl)-4-methylbenzenesulfonamide Trifluoroacetate Salt] was tested, and the IC50 [1] was at most 100 nM, the IC50 [2] was at most 500 nM and the IC50 [3] was at most 100 nM.

Work on `Cc1ccc(S(=O)(=O)NC23CC(C#N)(C2)C3)cc1-c1cnc(N)c(-n2ccnn2)n1` [Example 43, 3-(5-Amino-6-(1H-1,2,3-triazol-1-yl)pyrazin-2-yl)-N-(3-cyanobicyclo[1.1.1]pentan-1-yl)-4-methylbenzenesulfonamide Trifluoroacetate Salt] yielded an IC50 [1] of at most 100 nM, an IC50 [2] of at most 500 nM and an IC50 [3] of at most 100 nM.

With `Cc1ccc(S(=O)(=O)NC23CCC(C#N)(C2)C3)cc1-c1cnc(N)c(-n2ccnn2)n1` [Example 44, 3-(5-Amino-6-(1H-1,2,3-triazol-1-yl)pyrazin-2-yl)-N-(4-cyanobicyclo[2.1.1]hexan-1-yl)-4-methylbenzenesulfonamide Trifluoroacetate Salt] the IC50 [1] was at most 100 nM, the IC50 [2] was at most 100 nM and the IC50 [3] was at most 100 nM.

`Cc1ccc(S(=O)(=O)NC23CC(C#N)(C2)C3)cc1-c1cnc(N)c(-c2ncn(C)n2)n1` [Example 45, 3-(5-Amino-6-(1-methyl-1H-1,2,4-triazol-3-yl)pyrazin-2-yl)-N-(3-cyanobicyclo[1.1.1]pentan-1-yl)-4-methylbenzenesulfonamide Trifluoroacetate Salt] was tested, and the IC50 [1] was at most 500 nM, the IC50 [2] was at most 500 nM and the IC50 [3] was at most 100 nM.

With `Cc1ccc(S(=O)(=O)NC23CCC(C#N)(C2)C3)cc1-c1cnc(N)c(-c2ncn(C)n2)n1` [Example 46, 3-(5-Amino-6-(1-methyl-1H-1,2,4-triazol-3-yl)pyrazin-2-yl)-N-(4-cyanobicyclo[2.1.1]hexan-1-yl)-4-methylbenzenesulfonamide Trifluoroacetate Salt] the IC50 [1] was at most 500 nM, the IC50 [2] was at most 100 nM and the IC50 [3] was at most 100 nM.

With `[2H]C([2H])([2H])c1ccc(S(=O)(=O)NC23CCC(O)(CC2)C3)cc1-c1cnc(N)c(-n2cncn2)n1` [Example 47, 3-(5-Amino-6-(1H-1,2,4-triazol-1-yl)pyrazin-2-yl)-N-(4-hydroxybicyclo[2.2.1]heptan-1-yl)-4-(methyl-d3)benzenesulfonamide Trifluoroacetate Salt] the IC50 [1] was at most 100 nM, the IC50 [2] was at most 100 nM and the IC50 [3] was at most 100 nM.

`[2H]C([2H])([2H])c1ccc(S(=O)(=O)NC23CC(C#N)(C2)C3)cc1-c1cnc(N)c(-n2cncn2)n1` [Example 48, 3-(5-Amino-6-(1H-1,2,4-triazol-1-yl)pyrazin-2-yl)-N-(3-cyanobicyclo[1.1.1]pentan-1-yl)-4-(methyl-d3)benzenesulfonamide Trifluoroacetate Salt] was tested, and the IC50 [1] was at most 100 nM, the IC50 [2] was at most 500 nM and the IC50 [3] was at most 100 nM.

In the case of `[2H]C([2H])([2H])c1ccc(S(=O)(=O)NC23CC(CO)(C2)C3)cc1-c1cnc(N)c(-n2cncn2)n1` [Example 49, 3-(5-Amino-6-(1H-1,2,4-triazol-1-yl)pyrazin-2-yl)-N-(3-(hydroxymethyl)bicyclo[1.1.1]pentan-1-yl)-4-(methyl-d3)benzenesulfonamide Trifluoroacetate Salt], the IC50 [1] is reported as at most 500 nM, the IC50 [2] is reported as at most 100 nM and the IC50 [3] is reported as at most 100 nM.

For `[2H]C([2H])([2H])c1ccc(S(=O)(=O)NC23CC(C#N)(C2)C3)cc1-c1cnc(N)c(-n2nccn2)n1` [Example 50, 3-(5-Amino-6-(2H-1,2,3-triazol-2-yl)pyrazin-2-yl)-N-(3-cyanobicyclo[1.1.1]pentan-1-yl)-4-(methyl-d3)benzenesulfonamide Trifluoroacetate Salt], the IC50 [1] was at most 500 nM, the IC50 [2] was at most 100 nM and the IC50 [3] was at most 100 nM.

`O=C(O)C(F)(F)F.[2H]C([2H])([2H])c1ccc(S(=O)(=O)NC23CNC(C2)C3)cc1-c1cnc(N)c(-c2cnc(C)s2)n1` [Example 54, 3-(5-Amino-6-(2-methylthiazol-5-yl)pyrazin-2-yl)-N-(2-azabicyclo[2.1.1]hexan-4-yl)-4-(methyl-d3)benzenesulfonamide trifluoroacetate salt] showed an IC50 [1] of at most 500 nM, an IC50 [2] of at most 100 nM and an IC50 [3] of at most 100 nM.

`O=C(O)C(F)(F)F.[2H]C([2H])([2H])c1ccc(S(=O)(=O)NC23CNC(C2)C3)cc1-c1cnc(N)c(-c2cnc(C3CC3)s2)n1` [Example 55, 3-(5-Amino-6-(2-cyclopropylthiazol-5-yl)pyrazin-2-yl)-N-(2-azabicyclo[2.1.1]hexan-4-yl)-4-(methyl-d3)benzenesulfonamide trifluoroacetate salt] showed an IC50 [1] of at most 500 nM, an IC50 [2] of at most 100 nM and an IC50 [3] of at most 100 nM.

Compound `O=C(O)C(F)(F)F.[2H]C([2H])([2H])c1ccc(S(=O)(=O)NC23CNC(C2)C3)cc1-c1cnc(N)c(-c2cnco2)n1` [Example 56, 3-(5-Amino-6-(oxazol-5-yl)pyrazin-2-yl)-N-(2-azabicyclo[2.1.1]hexan-4-yl)-4-(methyl-d3)benzenesulfonamide trifluoroacetate salt] has an IC50 [1] of at most 1000 nM, an IC50 [2] of at most 500 nM and an IC50 [3] of at most 100 nM.

With `Cc1ccc(S(=O)(=O)NC23CNC(C2)C3)cc1-c1cnc(N)c(-c2ncn(C)n2)n1` [Example 57, 3-(5-Amino-6-(1-methyl-1H-1,2,4-triazol-3-yl)pyrazin-2-yl)-N-(2-azabicyclo[2.1.1]hexan-4-yl)-4-methylbenzenesulfonamide trifluoroacetate salt] the IC50 [1] was at most 500 nM, the IC50 [2] was at most 100 nM and the IC50 [3] was at most 100 nM.

`Cc1ccc(S(=O)(=O)NC23CNC(C2)C3)cc1-c1cnc(N)c(-n2cccn2)n1` [Example 58, 3-(5-Amino-6-(1H-pyrazol-1-yl)pyrazin-2-yl)-N-(2-azabicyclo[2.1.1]hexan-4-yl)-4-methylbenzenesulfonamide trifluoroacetate salt] showed an IC50 [1] of at most 1000 nM, an IC50 [2] of at most 500 nM and an IC50 [3] of at most 100 nM.

`Cc1ccc(S(=O)(=O)NC23CNC(C2)C3)cc1-c1cnc(N)c(-n2ccnn2)n1` [Example 59, 3-(5-amino-6-(1H-1,2,3-triazol-1-yl)pyrazin-2-yl)-N-(2-azabicyclo[2.1.1]hexan-4-yl)-4-methylbenzenesulfonamide trifluoroacetate salt] showed an IC50 [1] of at most 1000 nM, an IC50 [2] of at most 500 nM and an IC50 [3] of at most 100 nM.

Work on `[2H]C([2H])([2H])c1ccc(S(=O)(=O)NC23COC(CO)(C2)C3)cc1-c1cnc(N)c(-c2cnc(C3CC3)s2)n1` [Example 61, 3-(5-Amino-6-(2-cyclopropylthiazol-5-yl)pyrazin-2-yl)-N-(1-(hydroxymethyl)-2-oxabicyclo[2.1.1]hexan-4-yl)-4-(methyl-d3)benzenesulfonamide Trifluoroacetate Salt] yielded an IC50 [1] of at most 100 nM, an IC50 [2] of at most 100 nM and an IC50 [3] of at most 100 nM.

In the case of `Cc1ccc(S(=O)(=O)NC23CCC(C#N)(C2)C3)cc1-c1cnc(N)c(-n2cccn2)n1` [Example 62, 3-(5-Amino-6-(1H-pyrazol-1-yl)pyrazin-2-yl)-N-(4-cyanobicyclo[2.1.1]hexan-1-yl)-4-methylbenzenesulfonamide Trifluoroacetate Salt], the IC50 [1] is reported as at most 100 nM, the IC50 [2] is reported as at most 100 nM and the IC50 [3] is reported as at most 100 nM.

For `[2H]C([2H])([2H])c1ccc(S(=O)(=O)NC23CCC(C#N)(C2)C3)cc1-c1cnc(N)c(-c2ccn(C)n2)n1` [Example 63, 3-(5-Amino-6-(1-methyl-1H-pyrazol-3-yl)pyrazin-2-yl)-N-(4-cyanobicyclo[2.1.1]hexan-1-yl)-4-(methyl-d3)benzenesulfonamide Trifluoroacetate Salt], the IC50 [1] was at most 100 nM, the IC50 [2] was at most 100 nM and the IC50 [3] was at most 100 nM.

`[2H]C([2H])([2H])c1ccc(S(=O)(=O)NC23CCC(C#N)(C2)C3)cc1-c1cnc(N)c(-c2cnc(C)s2)n1` [Example 65, 3-(5-Amino-6-(2-methylthiazol-5-yl)pyrazin-2-yl)-N-(4-cyanobicyclo[2.1.1]hexan-1-yl)-4-(methyl-d3)benzenesulfonamide trifluoroacetate salt] was tested, and the IC50 [1] was at most 100 nM, the IC50 [2] was at most 100 nM and the IC50 [3] was at most 100 nM.
